{"source": "patent US20250161428A1", "about": "“PREVENTING/TREATING PSEUDOMONAS AERUGINOSA INFECTION” (priority 2022, published 2025)", "key": {"[1]": {"test_system": "mAb 1B1", "assay": "mAb inhibition ELISA with synthetic oligosaccharides, mAb 1B1", "format": "binding, mouse", "conditions": "P. aeruginosa PAO1 BAA-47 LPS or whole cell coated plates, 10 μg/ml mAb", "description": "FIGS. 15A, 15B, and 15C show inhibition ELISAs of mAbs 1B1 (FIG. 15A), 3C4 (FIG. 15B) and 3B8 (FIG. 15C) with LPS (left hand panels; square markers—P. aeruginosa PAO1 BAA-47, inverted triangle markers—P. aeruginosa (wzy::Gm)(Δpa5458), diamond markers—N. meningitidis galE/lpt3 and circular markers—PBS control) or synthetic oligosaccharides representing the terminal methylated rhamnan (right hand panels; solid circle markers—pentasaccharide, open square markers—tetrasaccharide, open circle markers—trisaccharide, inverted triangle markers—disaccharide, diamond markers—disaccharide with linker, triangle markers—L-monomer, solid square markers—D-monomer) against P. aeruginosa PAO1 BAA-47 LPS. Serial dilution, as shown on the x-axis, of either LPS or synthetic oligosaccharide was combined at an equal volume with 10 μg/ml mAb. After 1 h incubation, 100 μl of this inhibition mixture was added to PAO1 BAA-47 LPS coated plates. A secondary mAb specific for the primary mAb was added and absorbance was measured after a colour reagent was added. The absorbance obtained when the mAb is no longer inhibited by additional LPS or synthetic oligosaccharide is equal to inhibition by PBS.\nFIGS. 15D, 15E, and 15F show inhibition ELISAs of mAbs 1B1 (FIG. 15D), 3C4 (FIG. 15E) and 3B8 (FIG. 15F) with LPS (left hand panels; square markers—P. aeruginosa PAO1 BAA-47, inverted triangle markers—P. aeruginosa (wzy::Gm)(Δpa5458), diamond markers—N. meningitidis galE/lpt3 and circle markers—PBS control) or synthetic oligosaccharides representing the terminal methylated rhamnan (right hand panels; solid circle markers—pentasaccharide, open square markers—tetrasaccharide, open circle markers—trisaccharide, inverted triangle markers—disaccharide, diamond markers—disaccharide with linker, triangle markers—L-monomer, blue—D-monomer) against P. aeruginosa PAO1 BAA-47 whole cells. Serial dilution, as shown on the x-axis, of either LPS or synthetic oligosaccharide was combined at an equal volume with 10 μg/ml mAb. After 1 h incubation, 100 μl of this inhibition mixture was added to PAO1 BAA-47 whole cell coated plates. A secondary mAb specific for primary the mAb was added and absorbance measured after a colour reagent was added. Absorbance obtained when the mAb is no longer inhibited by additional LPS or synthetic oligosaccharide is equal to inhibition by PBS.\nmAb inhibition ELISA: Wells of Nunc Maxisorp EIA plates were coated with either 1 μg of P. aeruginosa LPS in PBS overnight at 4° C. or P. aeruginosa killed whole cells in dH2O in a drying oven overnight, and then brought to RT before use. Plates were blocked with 1% BSA-PBS for 1 h at RT, and then wells were washed with PBS-T. During the blocking step, the inhibition was set-up. Either LPS or a synthetic oligosaccharide was added to a tube at either 1 mg/ml or 3 mg/ml and then a serial dilution with 1% BSA-PBS was performed, before an equal volume of mAb (1B1, 3B8 or 3C4) was added at a constant concentration of 10 μg/ml in 1% BSA-PBS, this mixture was incubated for 1 h at RT. Following washing of the EIA plate with PBS-T, 100 μl from the mixed tubes was added to the plate and allowed to incubate for 1 h at RT for LPS coated plates, or 3 h at RT for killed whole cell coated plates. Following washing with PBS-T, the appropriate AP-labeled goat anti-mouse Ig (Southern Biotech) specific for the mAb used, diluted 1:250 in 1% BSA-PBS, was added for 1 h at RT. The plates were then washed with PBS-T and developed with Phosphatase Substrate System (Kirkegaard and Perry Laboratories). After 60 min, absorbance was measured at 405 nm using a microtiter plate reader. […]"}, "[2]": {"test_system": "1B1 IgM", "assay": "SPR binding of synthetic oligosaccharides to 1B1 IgM surface", "parameters": "species or system mouse", "conditions": "for Obs Rmax (observed maximum binding response): high density 1B1 IgM surface, 25° C., HBS-EP; for Obs Rmax (observed maximum binding response) / ka / kd: two runs per oligosaccharide", "protocol": "Various concentration ranges of synthetic oligosaccharides (see Experimental) were flowed over IgM 1B1 and an irrelevant IgM, Fn 4F1. Mcat lgt2/4: control oligosaccharide.\nSurface plasmon resonance (SPR): SPR binding assays were performed at 25° C. on a Biacore T200 instrument in HBS-EP running buffer (Cytiva Life Sciences, Mississauga, Canada), essentially as described previously. Briefly, approximately 13000 RUs of IgM (PA 1B1 and control Fn 4F1) were amine coupled to a CM7S sensor chip in 10 mM acetate buffer, pH 4.0 (Cytiva). Synthetic oligosaccharides were reconstituted in HBS-EP to 25 mM and a series of dilutions prepared for injection over IgM surfaces. The contact time was 60 s and the dissociation time 120 s (mono-, di-) or 180 s (tri-, tetra-, penta-). The following concentration ranges were injected: mono- (1 mM-62.5 μM), di- (200 μM-12.5 μM) and tri-, tetra- and penta- (10 μM-625 nM). Mcat lgt2/4 an oligosaccharide from Moraxella catarrhalis, served as a control and was injected at 10 μM. Surfaces were regenerated by extensive washing with HBS-EP. Reference flow cell subtracted sensorgrams were fit to a 1:1 binding model to determine binding kinetics and affinities, or affinities were determined by steady-state analysis.\nSynthetic carbohydrates ranging from a monosaccharide to pentasaccharide were flowed over high density surfaces of 1B1 IgM and an irrelevant IgM, Fn 4F1."}, "[3]": {"test_system": "killed whole cells of P. aeruginosa strains", "assay": "ELISA binding of mAbs to killed whole cells", "conditions": "summary statement, serotype strains and clinical isolates", "protocol": "FIGS. 11A, 11B, and 11C show ELISA analysis of binding of 1B1 (FIG. 11A), 3B8 (FIG. 11B), and 3C4 (FIG. 11C) purified monoclonal antibodies (mAbs) (all at 100 μg/ml) to killed whole cells of P. aeruginosa strains NRCC #'s 6678, 6668-70, 6954-60 and negative control strains M. catarrhalis 6541 and N. meningitidis 6263 (see Table 1 for full details of strains).\nELISA: The binding of anti-P. aeruginosa A-band terminal epitope mAbs and polyclonal sera to BSA conjugates, purified LPS and to whole cells was evaluated by ELISA as described previously."}, "[4]": {"test_system": "purified PAO1 LPS", "assay": "mAb competition ELISA", "format": "binding, P. aeruginosa", "conditions": "PAO1 LPS coated plates; 3C4 at 62.5 μg/ml", "protocol": "(§1) The plate was washed and mAb 3C4 was added at a constant concentration (62.5 μg/ml). A secondary mAb specific for mAb 3C4 was added and absorbance was measured after a colour reagent was added (line with square markers). The absorbance obtained when 3C4 was added to the plate without 1B1 competition is shown by the line with a triangle marker.\nas §1, with “to” for “to the”, “3B8” for “1B1”\nmAb competition ELISA: Wells of Nunc Maxisorp EIA plates were coated with 1 μg of P. aeruginosa LPS in PBS overnight at 4° C. and then brought to RT before use. Plates were blocked with 1% BSA-PBS for 1 h at RT, and then wells were washed with PBS-T. One mAb (1B1 or 3B8) was titrated and added to the plate for 1 h at RT. Following washing with PBS-T, the second mAb (3C4) was added at a pre-determined concentration and allowed to incubate for 1 h at RT. Following washing with PBS-T, AP-labeled goat anti-mouse IgG2b (Southern Biotech) specific for mAb 3C4, diluted 1:250 in 1% BSA-PBS was added for 1 h at RT. The plates were then washed with PBS-T and developed with Phosphatase Substrate System (Kirkegaard and Perry Laboratories). After 60 min absorbance was measured at 405 nm using a microtiter plate reader."}, "[5]": {"conditions": "1:1 binding model, table: two runs, text: one value per oligosaccharide, read-out: KD"}, "[6]": {"conditions": "1:1 binding model, listed as Tri-"}}, "note": "Values joined by “and” are separate entries in the source; they are usually repeats but may differ in a detail not shown here. Equal values may be shown once. Read-outs that look alike come from different tables or passages of the source."}
{"molecule": "CO[C@@H]([C@H](O)[C@@H](C)O)[C@H](O)C=O", "note": "[D-monosaccharide, 3-O-Methyl-D-rhamnose]", "values": [{"measurement": "inhibition of binding of mAb 1B1 to its target LPS and killed whole cells", "setting": "[1]", "result": "some evidence of inhibition"}]}
{"molecule": "CO[C@@H]1[C@@H](O)[C@H](C)OC(O)[C@@H]1O", "note": "(stereo partly drawn) [L-monosaccharide, 3-O-Methyl-L-rhamnopyranose]", "values": [{"measurement": "inhibition of binding of mAb 1B1 to its target LPS and killed whole cells", "setting": "[1]", "result": "completely ineffective in inhibition"}]}
{"molecule": "CO[C@@H]1[C@H](O)[C@@H](O[C@H]2[C@H](OC)[C@H](O)C(O)O[C@@H]2C)O[C@H](C)[C@H]1O", "note": "(stereo partly drawn) [disaccharide, 3-O-Methyl-α-D-rhamnopyranoside-(1→4)-3-O-methyl-D-rhamnopyranose]", "values": [{"measurement": "Obs Rmax (observed maximum binding response)", "setting": "[2]; listed as Di-", "result": "14 and 15"}, {"measurement": "Kd", "setting": "[2]; steady-state analysis, listed as Di-, read-out: KD, steady state affinity", "result": "85800 nM and 82500 nM"}, {"measurement": "Kd", "setting": "[2]; steady-state analysis, read-out: KD, steady state affinity", "result": 84000, "unit": "nM"}, {"measurement": "inhibition of binding of mAb 1B1 to its target LPS and killed whole cells", "setting": "[1]", "result": "some evidence of inhibition"}]}
{"molecule": "CO[C@@H]1[C@H](O)[C@@H](O[C@H]2[C@H](OC)[C@H](O)[C@@H](O[C@H]3[C@H](OC)[C@H](O)[C@@H](O[C@H]4[C@H](OC)[C@H](O)[C@@H](O[C@H]5[C@H](OC)[C@H](O)[C@@H](O)O[C@@H]5C)O[C@@H]4C)O[C@@H]3C)O[C@@H]2C)O[C@H](C)[C@H]1O", "note": "[pentasaccharide, 3-O-methyl-α-D-rhamnopyranoside-(1→4)-3-O-methyl-α-D-rhamnopyranoside-(1→4)-3-O-methyl-α-D-rhamnopyranoside-(1→4)-3-O-methyl-α-D-rhamnopyranoside-(1→4)-3-O-methyl-α-D-rhamnopyranose]", "values": [{"measurement": "Kd", "setting": "[2]; 1:1 binding model, table: two runs, text: one value per oligosaccharide, listed as Penta-, read-out: KD", "result": 540, "unit": "nM"}, {"measurement": "Kd", "setting": "[2]; [5]", "result": 550, "unit": "nM"}, {"measurement": "ka", "setting": "[2]; 1:1 binding model", "result": "3430 s⁻¹ and 5430 s⁻¹"}, {"measurement": "kd", "setting": "[2]; 1:1 binding model", "result": "0.00186 M⁻¹ s⁻¹ and 0.0019 M⁻¹ s⁻¹"}, {"measurement": "Obs Rmax (observed maximum binding response)", "setting": "[2]", "result": 34}, {"measurement": "inhibition of binding of mAb 1B1 to its target LPS and killed whole cells", "setting": "[1]", "result": "effectively equivalent in inhibiting"}]}
{"molecule": "CO[C@@H]1[C@H](O)[C@@H](O[C@H]2[C@H](OC)[C@H](O)[C@@H](O[C@H]3[C@H](OC)[C@H](O)[C@@H](O[C@H]4[C@H](OC)[C@H](O)[C@@H](O)O[C@@H]4C)O[C@@H]3C)O[C@@H]2C)O[C@H](C)[C@H]1O", "note": "[tetrasaccharide, 3-O-methyl-α-D-rhamnopyranoside-(1→4)-3-O-methyl-α-D-rhamnopyranoside-(1→4)-3-O-methyl-α-D-rhamnopyranoside-(1→4)-3-O-methyl-α-D-rhamnopyranose]", "values": [{"measurement": "Kd", "setting": "[2]; 1:1 binding model, table: two runs, text: one value per oligosaccharide, listed as Tetra-, read-out: KD", "result": 650, "unit": "nM"}, {"measurement": "Kd", "setting": "[2]; [5]", "result": 660, "unit": "nM"}, {"measurement": "ka", "setting": "[2]; 1:1 binding model", "result": "5690 s⁻¹ and 5260 s⁻¹"}, {"measurement": "kd", "setting": "[2]; 1:1 binding model", "result": "0.00372 M⁻¹ s⁻¹ and 0.00348 M⁻¹ s⁻¹"}, {"measurement": "Obs Rmax (observed maximum binding response)", "setting": "[2]", "result": "28 and 29"}, {"measurement": "inhibition of binding of mAb 1B1 to its target LPS and killed whole cells", "setting": "[1]", "result": "effectively equivalent in inhibiting"}]}
{"molecule": "CO[C@@H]1[C@H](O)[C@@H](O[C@H]2[C@H](OC)[C@H](O)[C@@H](O[C@H]3[C@H](OC)[C@H](O)[C@@H](O)O[C@@H]3C)O[C@@H]2C)O[C@H](C)[C@H]1O", "note": "[trisaccharide, 3-O-methyl-α-D-rhamnopyranoside-(1→4)-3-O-methyl-α-D-rhamnopyranoside-(1→4)-3-O-methyl-α-D-rhamnopyranose]", "values": [{"measurement": "Kd", "setting": "[2]; 1:1 binding model, table: two runs, text: one value per oligosaccharide, listed as Tri-, read-out: KD", "result": "1370 nM and 1460 nM"}, {"measurement": "Kd", "setting": "[2]; [5]", "result": 1420, "unit": "nM"}, {"measurement": "ka", "setting": "[2]; [6]", "result": "12800 s⁻¹ and 12300 s⁻¹"}, {"measurement": "kd", "setting": "[2]; [6]", "result": "0.0176 M⁻¹ s⁻¹ and 0.0179 M⁻¹ s⁻¹"}, {"measurement": "Obs Rmax (observed maximum binding response)", "setting": "[2]", "result": 21}, {"measurement": "inhibition of binding of mAb 1B1 to its target LPS and killed whole cells", "setting": "[1]", "result": "effectively equivalent in inhibiting"}, {"measurement": "inhibition of binding of mAb 1B1 to its target LPS and killed whole cells", "setting": "[1]; listed as 3-O-methyl rhamnan trisaccharide", "result": "effectively inhibited"}]}
{"molecule": "3B8: mouse IgM monoclonal antibody to the A-PS terminus; VH SEQ ID NO: 13, VL SEQ ID NO: 17 (antibody, V domains shown) VH: EIQLQQSGPELVKPGASVKVSCKASGYSFTDYNMYWVKQSHGKSLEWVGYIDPYNGGTTYNQKFKGKATLTVDKSSSTAFMHLNSLTSEDSAVYYCAKGGYRYDAWFAYWGQGTLVTVSA VL: DAVMTQTPLSLPVSLGDHASISCRSSQSLENNNGNTYLNWYLQKPGQSPQLLIYRVSNRFSGVLDRFSGSGSGTDFTLKISRVEAEDLGVYFCLQVTHVPWTFGGGTKLEIK", "values": [{"measurement": "range of P. aeruginosa strains recognised", "setting": "[3]", "result": "recognition restricted to the wt serotype 5 strains PAO1 BAA-47 and 5937"}, {"measurement": "epitope relation in competition ELISA with mAb 3C4", "setting": "[4]", "result": "recognised similar overlapping epitopes"}]}
